Data: patent US5026836A, “6-sulfenamide, 6-sulfinamide and 6-sulfonamide purines, purine nucleosides, purine nucleotides, pharmaceutical compositions, and processes of making” (priority 1988, dated 1991)

How the values were obtained:
[1] = tested on: Colon 26 Adenocarcinoma; experiment: Survival of CDF1 mice bearing Colon 26 Adenocarcinoma; type: in vivo, mouse; details: for T/C (%): ≥150% significant
Procedure: In Example Q Compound 19 was tested against Colon 26 Adenocarcinoma.

[2] = tested on: Murine Glioma 261; experiment: Murine Glioma 261 tumor weight in C57B1/6 mice; type: in vivo, mouse; details: qd days 1-9; for Attained tumor wt (Mean ± 1SD): day 10; for T/C (%): active at or below 42%
Procedure: Compound 19 was also tested against Murine Glioma 261. In this test activity is indicated at levels of T/C below 42%. As is shown in Table 19, Compound 19 is active at various doses against this tumor system.

[3] = ip 62 mg/kg/inj, bid days 1,4,7
[4] = ip 104 mg/kg/inj, qd days 1,3,5,7
[5] = ip 104 mg/kg/inj, qd days 1,4,7
[6] = ip 173 mg/kg/inj, qd days 1,3,5,7
[7] = ip 173 mg/kg/inj, qd days 1,4,7

Nc1nc([S+](N)[O-])c2ncn([C@@H]3O[C@H](CO)[C@@H](O)[C@H]3O)c2n1 (mixture of isomers) [Compound 19, 2-amino-9-β-D-ribofuranosyl-9H-purine-6-sulfinamide]
Median survival time [1, 3]: 45 days post inoculation | T/C (%) [1, 3]: 196% | Median survival time ([1]; ip 62 mg/kg/inj, qd days 1-7): 40 days post inoculation | T/C (%) ([1]; ip 62 mg/kg/inj, qd days 1-7): 174% | Median survival time ([1]; ip 104 mg/kg/inj, bid days 1,4,7, group included 6 toxic deaths): 17 days post inoculation | Median survival time [1, 4]: 34 days post inoculation | T/C (%) [1, 4]: 148% | Median survival time [1, 5]: 31 days post inoculation | T/C (%) [1, 5]: 135% | Median survival time ([1]; ip 104 mg/kg/inj, qd days 1-7): 38 days post inoculation | T/C (%) ([1]; ip 104 mg/kg/inj, qd days 1-7): 165% | Median survival time [1, 6]: 42 days post inoculation | T/C (%) [1, 6]: 183% | Median survival time [1, 7]: 31 days post inoculation | T/C (%) [1, 7]: 135% | Attained tumor wt (Mean ± 1SD) ([2]; ip 22 mg/kg/inj): 80 ± 130 mg | Attained tumor wt (Mean ± 1SD) ([2]; ip 37 mg/kg/inj): 119 ± 105 mg | Attained tumor wt (Mean ± 1SD) ([2]; ip 62 mg/kg/inj): 137 ± 124 mg | Attained tumor wt (Mean ± 1SD) ([2]; ip 104 mg/kg/inj): 5 ± 5 mg | T/C (%) ([2]; ip 22 mg/kg/inj): 22.9% | T/C (%) ([2]; ip 37 mg/kg/inj): 34.1% | T/C (%) ([2]; ip 62 mg/kg/inj): 39.3% | T/C (%) ([2]; ip 104 mg/kg/inj): 1.4%
